Experimental data: the supplement of paper PMC10307832

Legend:
Assay in all cases: relative viability (nuclei count vs DMSO), 5 days (fraction); higher = more cells survive
NCI-H358 = tested on: NCI-H358
Outline: (§1)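 Relative viability divides the nuclei count in treated wells by that in vehicle wells. Lung cancer cell lines were seeded in 1536-well plates, dosed by pin tool the next day, and fixed and stained after 5 days in one step with final 0.05% Triton X-100, 1% formaldehyde and 1 ug/ml Hoechst. Dosing was a single drug or a fixed anchor-drug dose plus five library-drug doses (not always all listed) in √10 steps, and values are medians of duplicate plates imaged at 4×.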

EPLC-272H = tested on: EPLC-272H
Outline: as §1

A-427 = tested on: A-427
Outline: as §1

NCI-H1915 = tested on: NCI-H1915
Outline: as §1

EKVX = tested on: EKVX
Outline: as §1

NCI-H2023 = tested on: NCI-H2023
Outline: as §1

NCI-H1734 = tested on: NCI-H1734
Outline: as §1

COR-L23 = tested on: COR-L23
Outline: as §1

NCI-H1395 = tested on: NCI-H1395
Outline: as §1

NCI-H3122 = tested on: NCI-H3122
Outline: as §1

NCI-H650 = tested on: NCI-H650
Outline: as §1

NCI-H2087 = tested on: NCI-H2087
Outline: as §1

## O=c1[nH]c2ccccc2n1C1CCN(CCCC(c2ccc(F)cc2)c2ccc(F)cc2)CC1 [Pimozide] + CC(=O)Nc1cccc(-n2c(=O)n(C3CC3)c(=O)c3c(Nc4ccc(I)cc4F)n(C)c(=O)c(C)c32)c1 [Trametinib] (partner 0.02 µM)
NCI-H358; first compound 0.08 µM
  relative viability: 0.135
NCI-H358; first compound 0.253 µM
  relative viability: 0.147
NCI-H358; first compound 0.8 µM
  relative viability: 0.137
NCI-H358; first compound 2.53 µM
  relative viability: 0.13
NCI-H358; first compound 8 µM
  relative viability: 0.126
EPLC-272H; first compound 0.08 µM
  relative viability: 0.282
EPLC-272H; first compound 0.253 µM
  relative viability: 0.26
EPLC-272H; first compound 0.8 µM
  relative viability: 0.27
EPLC-272H; first compound 2.53 µM
  relative viability: 0.263
EPLC-272H; first compound 8 µM
  relative viability: 0.233
A-427; first compound 0.08 µM
  relative viability: 0.771
A-427; first compound 0.253 µM
  relative viability: 0.75
A-427; first compound 0.8 µM
  relative viability: 0.701
A-427; first compound 2.53 µM
  relative viability: 0.682
A-427; first compound 8 µM
  relative viability: 0.68
NCI-H1915; first compound 0.08 µM
  relative viability: 0.293
NCI-H1915; first compound 0.253 µM
  relative viability: 0.296
NCI-H1915; first compound 2.53 µM
  relative viability: 0.296
NCI-H1915; first compound 8 µM
  relative viability: 0.287
EKVX; first compound 0.253 µM
  relative viability: 0.294
EKVX; first compound 0.8 µM
  relative viability: 0.31
EKVX; first compound 2.53 µM
  relative viability: 0.344
EKVX; first compound 8 µM
  relative viability: 0.326
NCI-H2023; first compound 0.08 µM
  relative viability: 0.584
NCI-H2023; first compound 0.253 µM
  relative viability: 0.532
NCI-H2023; first compound 0.8 µM
  relative viability: 0.582
NCI-H2023; first compound 2.53 µM
  relative viability: 0.429
NCI-H2023; first compound 8 µM
  relative viability: 0.362
NCI-H1734; first compound 0.08 µM
  relative viability: 0.685
NCI-H1734; first compound 0.253 µM
  relative viability: 0.697
NCI-H1734; first compound 0.8 µM
  relative viability: 0.734
NCI-H1734; first compound 2.53 µM
  relative viability: 0.657
NCI-H1734; first compound 8 µM
  relative viability: 0.673
COR-L23; first compound 0.08 µM
  relative viability: 0.541
COR-L23; first compound 0.253 µM
  relative viability: 0.596
COR-L23; first compound 0.8 µM
  relative viability: 0.602
COR-L23; first compound 2.53 µM
  relative viability: 0.629
COR-L23; first compound 8 µM
  relative viability: 0.478
NCI-H1395; first compound 0.08 µM
  relative viability: 0.929
NCI-H1395; first compound 0.253 µM
  relative viability: 0.924
NCI-H1395; first compound 0.8 µM
  relative viability: 0.993
NCI-H1395; first compound 2.53 µM
  relative viability: 1.09
NCI-H1395; first compound 8 µM
  relative viability: 0.916
NCI-H3122; first compound 0.08 µM
  relative viability: 0.239
NCI-H3122; first compound 0.253 µM
  relative viability: 0.227
NCI-H3122; first compound 0.8 µM
  relative viability: 0.216
NCI-H3122; first compound 2.53 µM
  relative viability: 0.252
NCI-H3122; first compound 8 µM
  relative viability: 0.188
NCI-H650; first compound 0.08 µM
  relative viability: 0.97
NCI-H650; first compound 0.253 µM
  relative viability: 0.962
NCI-H650; first compound 0.8 µM
  relative viability: 0.885
NCI-H650; first compound 2.53 µM
  relative viability: 1.06
NCI-H650; first compound 8 µM
  relative viability: 0.974
NCI-H2087; first compound 0.08 µM
  relative viability: 0.243
NCI-H2087; first compound 0.253 µM
  relative viability: 0.24
